Structures can show the parent of a compound that is named as a salt.
Test system: not given
Experiment: not given
Settings: not given

Row | SMILES | melting point [°C]
1 | CCC(CC)Nc1nc(C)nc(Nc2c(C)cc(C)c3nsnc23)c1C | 113 to 115
2 | CCC(C)Nc1nc(C)nc(Nc2c(C)cc(C)c3nsnc23)c1C (centres unmarked) | 88
3 | CCCN(CCC)c1nc(C)nc(Nc2c(C)cc(C)c3nsnc23)c1C#N | 171 to 173
4 | CCN(C)c1nc(C)nc(Nc2c(Cl)cc(Cl)c3nsnc23)c1C | 116
5 | CCCCN(C)c1nc(C)nc(Nc2c(Cl)cc(Cl)c3nsnc23)c1C | 105
6 | CCCN(CC)c1nc(C)nc(Nc2c(Cl)cc(Cl)c3nsnc23)c1C | 107
7 | CCCCN(CC)c1nc(C)nc(Nc2c(Cl)cc(Cl)c3nsnc23)c1C | 101
8 | CCCN(CCC)c1nc(C)nc(Nc2c(Cl)cc(Cl)c3nsnc23)c1C | 118 to 121
9 | CCCCN(CCCC)c1nc(C)nc(Nc2c(Cl)cc(Cl)c3nsnc23)c1C | 56
10 | C=CCN(CC=C)c1nc(C)nc(Nc2c(Cl)cc(Cl)c3nsnc23)c1C | 112
11 | Cc1nc(NCc2ccccc2)c(C)c(Nc2c(Cl)cc(Cl)c3nsnc23)n1 | 126
12 | Cc1nc(Nc2c(Cl)cc(Cl)c3nsnc23)c(C)c(N(C)Cc2ccccc2)n1 | 138
13 | CCCN(CCC)c1nc(C)nc(Nc2c(C)cc(Cl)c3nsnc23)c1C | 102 to 104
14 | CCCN(CCC)c1nc(C)nc(Nc2c(Cl)cc(C)c3nsnc23)c1C | 112 to 114
15 | CCCN(CCC)c1nc(C)nc(Nc2c(Cl)ccc3nsnc23)c1C | 77 to 80
16 | CCCN(CCC)c1nc(C)nc(Nc2c(C)ccc3nsnc23)c1C | 95 to 98
17 | CCCN(CCC)c1nc(C)nc(Nc2c(C)cc(C)c3nccnc23)c1C | 94 to 96
18 | CCCN(CCC)c1nc(C)nc(Nc2c(Cl)cc(Cl)c3nccnc23)c1C | 126 to 128
19 | CCCN(CCC)c1nc(C)nc(Nc2c(Cl)cc(C)c3nccnc23)c1C | 107 to 109
20 | CCCN(CC)c1nc(C)nc(Nc2c(Cl)cc(Cl)c3nccnc23)c1C | 120 to 123
21 | CCCN(CC)c1nc(C)nc(Nc2c(C)cc(C)c3nccnc23)c1C | 109 to 110
22 | CCCCN(CC)c1nc(C)nc(Nc2c(Cl)cc(Cl)c3nccnc23)c1C | 117 to 119
23 | CCCCN(CC)c1nc(C)nc(Nc2c(C)cc(C)c3nccnc23)c1C | 106 to 107
24 | CCCN(CCC)c1nc(C)nc(Nc2c(C)cc(C)c3nsnc23)c1Cl | 106 to 108
25 | CCCN(CC)c1nc(C)nc(Nc2c(C)cc(C)c3nsnc23)c1C | 101 to 102
26 | CCCCN(CC)c1nc(C)nc(Nc2c(C)cc(C)c3nsnc23)c1C | 83 to 84
27 | CCN(CC)c1nc(C)nc(Nc2c(Cl)cc(Cl)c3nsnc23)c1C (as salt: fumarate) | 189 to 193
28 | CCCN(CCC)c1cc(Nc2c(C)cc(C)c3nsnc23)nc(C)n1 (as salt: fumarate) | 177 to 179

Test system: mouse
Experiment: mouse elevated plus-maze (anxiolytic activity)
Assay type: in vivo
Settings: 0.1 to 10 mg/kg p.o., in contrast to the standard chlordiazepoxide
From the text: For example the anxiolytic activity of the agents of the invention could be confirmed in the mouse elevated plus-maze [see for example Rodgers R. J., Behavioural Pharmacology 8: 477-496 (1997) where the relevance of the elevated plus-maze is discussed on p. 486; for the method, see Rodgers R. J. et al. Ethology and Psychopharmacology (Eds S J Cooper and C A Hendrie), pp 9-44 (1994), J. Wiley, Chichester]. In this test, the agents of the invention show anxiolytic-like effects on administration of 0.1 to 30 mg/kg p.o.

Row | SMILES | parameters related to motor stimulation in the elevated plus-maze
29 | CCCN(CCC)c1nc(C)nc(Nc2c(C)cc(C)c3nsnc23)c1C [Example 1, 5,7-dimethyl-4-[2,5-dimethyl-6-(di-n-propyl)-amino-pyrimidin-4-yl]-amino-2,1,3-benzothiadiazole] | not affected

Same assay, conditions: doses of 0.1 to 10 mg/kg p.o.

Row | SMILES | effect on anxiety-related behavioural parameters in the elevated plus-maze
30 | CCCN(CCC)c1nc(C)nc(Nc2c(C)cc(C)c3nsnc23)c1C [Example 1, 5,7-dimethyl-4-[2,5-dimethyl-6-(di-n-propyl)-amino-pyrimidin-4-yl]-amino-2,1,3-benzothiadiazole] | significantly affect the anxiety-related behavioural parameters

Same assay, conditions: p.o., elevated plus-maze

Row | SMILES | dose of maximum effect on anxiety-related behavioural parameters [mg/kg]
31 | CCCN(CCC)c1nc(C)nc(Nc2c(C)cc(C)c3nsnc23)c1C [Example 1, 5,7-dimethyl-4-[2,5-dimethyl-6-(di-n-propyl)-amino-pyrimidin-4-yl]-amino-2,1,3-benzothiadiazole] | 3

Biological target: T1, human recombinant CRF1 (Homo sapiens, UniProt P34998)
T1 construct: expressed in transfected cells
T1 sequence (P34998 24-415): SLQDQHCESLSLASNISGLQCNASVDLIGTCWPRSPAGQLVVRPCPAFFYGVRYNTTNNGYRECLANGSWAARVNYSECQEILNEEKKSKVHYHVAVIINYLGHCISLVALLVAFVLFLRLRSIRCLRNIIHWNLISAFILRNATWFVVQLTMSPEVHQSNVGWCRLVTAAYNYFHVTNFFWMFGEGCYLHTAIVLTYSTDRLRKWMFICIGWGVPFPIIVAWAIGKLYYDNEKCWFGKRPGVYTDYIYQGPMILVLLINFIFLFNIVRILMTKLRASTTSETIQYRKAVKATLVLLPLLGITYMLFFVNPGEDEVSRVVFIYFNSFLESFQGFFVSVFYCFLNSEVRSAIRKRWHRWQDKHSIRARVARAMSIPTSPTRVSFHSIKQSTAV
Experiment: CRF-stimulated cyclic AMP accumulation in CHO cells expressing human recombinant CRF1 (antagonism, KB from curve shift)
Assay type: cell-based
Settings: cAMP, shift of CRF curve with antagonist 10 μM
Protocol: In particular the agents of the invention bind to CRF receptors.
Chinese hamster ovary (CHO) cells expressing human recombinant CRF1 (Chen et al., Proc Natl Acad Sci USA 90, 8967-8971, 1993) are propagated in Dulbecco's modified Eagle medium supplemented with 10% foetal calf serum, non-essential aminoacids, 100 U/ml penicillin, 100 mg/l streptomycin and 1 g/l geneticin (G418). For cyclic AMP determinations, cells are grown to confluence in 24-multiwell plates. Stimulation of cyclic AMP accumulation by CRF (human/rat form) is measured in intact cells, using the [^3H]adenine labelling technique, as described previously (Schoeffter et al., Neuropharmacology 36, 429-437, 1997). Concentration-response curves for CRF are constructed in the presence of putative antagonists (10 μM) or vehicle (dimethyl sulfoxide 1% vol). KB values are calculated from the rightward shifts of the control curve, according to the formula: KB=[antagonist, M]/concentration-ratio-1), where the concentration-ratio designates the ratio of CRF EC50 value in the presence/CRF EC50 value in the absence, of antagonist [Furchgott, In: catecholamines (edited by Blaschko H and Muscholl E) pp. 283-335. Springer, Berlin, 1972].

Row | SMILES | Kb [µM]
32 | CCCN(CCC)c1nc(C)nc(Nc2c(C)cc(C)c3nsnc23)c1C [Example 1, 5,7-dimethyl-4-[2,5-dimethyl-6-(di-n-propyl)-amino-pyrimidin-4-yl]-amino-2,1,3-benzothiadiazole] | 0.036

Reference: patent US6756367B2, “Benzo-oxadiazoles, -thiadiazoles and -1,4-diazines, pharmaceutical compositions containing them and a process for preparing them” (Novartis AG, priority 1998, dated 2004)
